Reference: patent US9428665B2, “Photopolymerizable inkjet ink, ink cartridge, and inkjet recording device” (Ricoh Company, Ltd., priority 2011, dated 2016)
Where two headings read alike, the source gives them in different places.

Tests used:
female mice = experiment: Skin sensitization test based on the LLNA (Local Lymph Node Assay), SI value by BrdU intake; type: in vivo; settings: test substance 50.0 w/v % in acetone:olive oil 4:1, 25 μL/auricle once/day × 3 days, SI less than 3 = negative for skin sensitization
Source text: Here, the photopolymerizable monomer negative for skin sensitization refers to at least one of the following compounds (1) to (3): • (1) a compound having a Stimulation Index (SI value) of less than 3, where the Stimulation Index indicates the extent of sensitization as measured by a skin sensitization test based on the LLNA (Local Lymph Node Assay); • (2) a compound evaluated as “negative for skin sensitization” or “no skin sensitization” in its MSDS (Material Safety Data Sheet); and • (3) a compound evaluated as “negative for skin sensitization” or “without skin sensitization” in literature [e.g., Contact Dermatitis 8 223-235 (1982)]. […]
According to the skin sensitization test based on the LLNA (Local Lymph Node Assay), the SI value was measured in the below described manner. […]
Before treated with the test substances, the positive control or the vehicle control, female mice were acclimated for 8 days including 6-day quarantine. […] Based on the body weights measured 2 days before the initiation of sensitization, they were categorized into 2 groups (4 mice/group) by the body weight stratified random sampling method so that the body weight of each individual was within ±20% of the average body weight of all the individuals. […]

[1] = cited from earlier work
[2] = in vivo; cited from earlier work
[3] = test method: the maximization method; cited from earlier work
[4] = test method: OECD test guideline 406

Molecule: CCc1cc(CC)c2sc3ccccc3c(=O)c2c1 [2,4-Diethylthioxanthone]
- SI value (Stimulation Index) (female mice): 1.4

Molecule: CCCCC(CC)COC(=O)c1ccc(N(C)C)cc1 (centres unmarked) [2-ethylhexyl p-dimethylaminobenzoate]
- skin sensitization evaluated in the MSDS [1, 4]: none

Molecule: C=COCCOCCOCCOC=C [Example B1, Triethylene glycol divinyl ether]
- skin sensitization evaluated in the MSDS [1, 4]: negative

Molecule: CCC(Cc1ccc(C)cc1)(C(=O)c1ccc(N2CCOCC2)cc1)N(C)C (centres unmarked) [Example C1, 2-Dimethylamino-2-(4-methylbenzyl)-1-(4-morpholin-4-yl-phenyl) butan-1-one]
- skin sensitization evaluated in the MSDS [1, 4]: none

Molecule: CSc1ccc(C(=O)C(C)(C)N2CCOCC2)cc1 [Example C2, 2-Methyl-1-[4-(methylthio)phenyl]-2-morpholinopropan-1-one]
- skin sensitization evaluated in the MSDS [1, 4]: none

Molecule: CCC(Cc1ccccc1)(C(=O)c1ccc(N2CCOCC2)cc1)N(C)C (centres unmarked) [Example C3, 2-Benzyl-2-dimethylamino-1-(4-morpholinophenyl)butanone-1]
- skin sensitization evaluated in the MSDS [1, 4]: none

Molecule: C=CC(=O)NCCO [HEAA, Hydroxyethylacryl amide]
- skin sensitization evaluation (MSDS or literature) [2]: none

Molecule: C=C(C)C(=O)OCCCCCC [HEXYL METHACRYLATE, n-Hexyl methacrylate]
- skin sensitization evaluated in the literature [3]: negative

Molecule: C=C(C)C(=O)OC(C)(C)C [LIGHT ESTER TB, t-Butyl methacrylate]
- skin sensitization evaluated in the literature [3]: negative

Molecule: C=C(C)C(=O)OCCCCC [n-AMYL METHACRYLATE, n-Pentyl methacrylate]
- skin sensitization evaluated in the literature [3]: negative

Molecule: Caprolactone-modified dipentaerythritol hexaacrylate [DPCA-60]
- skin sensitization evaluated in the MSDS ([1]; in vivo): negative
